This is an account of results in ChEMBL document CHEMBL5380875, “Discovery of a Potent and Oral Available Complex I OXPHOS Inhibitor That Abrogates Tumor Growth and Circumvents MEKi Resistance” (J Med Chem, 2023).

Calls of active or inactive are those of the source. No cut-off for these calls is given here. Bounds are passed on as bounds.

In data set [1] the test system is NCI-H460. The experiment in a line: Inhibition of mitochondrial respiration in human NCI-H460 cells with high-OXPHOS assessed as reduction in spare oxygen consumption rate capacity incubated for 12 hrs by seahorse XF96 flux analyzer. In kind it is functional, cell-based. The conditions noted are these: dose 50-200 nM.
In data set [2] the test system is NCI-H460. As to the kind of experiment: Induction of apoptosis in human NCI-H460 cells with high-OXPHOS harboring KRAS Q61H mutant assessed as early apoptotic cells at 20 nM incubated for 72 hrs by Annexin V-FITC/propidium iodide staining based flow cytometry analysis (reference value: 1.95%). In kind it is functional.
Data set [3] relates to A549. The experiment in a line: Induction of apoptosis in human Trametinib-resistant A549 cells with high-OXPHOS harboring KRAS G12S mutant assessed as early apoptotic cells at 20 nM incubated for 72 hrs in presence of trametinib by Annexin V-FITC/propidium iodide staining based flow cytometry analysis (reference value: 4.31%). In kind it is functional. A general note: In flow cytometry, cells or beads pass a laser one at a time.

Data set [4] can be described thus: Tmax in ICR mouse at 10 mg/kg, po measured for 24 hrs by LC-MS/MS analysis. In kind it is ADME, organism-based. To be noted: in vivo.
In data set [5] the test system is NCI-H460. The experiment in a line: Inhibition of mitochondrial complex III in human NCI-H460 cells at 1 uM incubated for 12 hrs by seahorse XF96 metabolic flux analyzer relative to control. In kind it is cell-based.
For data set [6], the system named is NCI-H460. The experiment in a line: Inhibition of mitochondrial respiration in human NCI-H460 cells with high-OXPHOS assessed as reduction in maximal oxygen consumption rate incubated for 12 hrs by seahorse XF96 flux analyzer. The conditions noted are these: dose 50-200 nM. In kind it is functional, cell-based.
Data set [7] relates to NCI-H460. As to the kind of experiment: Potentiation of trametinib-induced antitumor activity against human NCI-H460 cells with high-OXPHOS xenografted in mouse assessed as reduction in tumor weight at 30 mg/kg, po bid administered for 18 days and measured every 3 days by electronic caliper analysis. In kind it is functional, organism-based. The conditions noted are these: time 18.0 day. On the technique in general: Xenograft models place foreign cells or tissue in a host animal.

In data set [8] the test system is NCI-H460. The experiment in a line: Inhibition of mitochondrial complex I NADH-ubiquinone oxidoreductase in human NCI-H460 cells at 1 uM incubated for 12 hrs by seahorse XF96 metabolic flux analyzer relative to control. It is filed as cell-based.
Data set [9] is described as follows: Clearance in ICR mouse at 1 mg/kg, iv measured for 24 hrs by LC-MS/MS analysis. In kind it is ADME, organism-based. To be noted: in vivo.
For data set [10], the system named is NCI-H441. As to the kind of experiment: Induction of apoptosis in human NCI-H441 cells with high-OXPHOS assessed as early apoptotic cells at 30 nM incubated for 48 hrs by Annexin V-FITC/propidium iodide staining based flow cytometry analysis (reference value: 1.67%). It is filed as functional.
Data set [11] deals with Cytochrome P450 3A4 (Homo sapiens, UniProt P08684). The experiment in a line: Inhibition of CYP3A4 in human liver microsomes using midazolam as substrate. It is filed as ADME, Microsome.
Sequence of Cytochrome P450 3A4 (P08684 whole entry): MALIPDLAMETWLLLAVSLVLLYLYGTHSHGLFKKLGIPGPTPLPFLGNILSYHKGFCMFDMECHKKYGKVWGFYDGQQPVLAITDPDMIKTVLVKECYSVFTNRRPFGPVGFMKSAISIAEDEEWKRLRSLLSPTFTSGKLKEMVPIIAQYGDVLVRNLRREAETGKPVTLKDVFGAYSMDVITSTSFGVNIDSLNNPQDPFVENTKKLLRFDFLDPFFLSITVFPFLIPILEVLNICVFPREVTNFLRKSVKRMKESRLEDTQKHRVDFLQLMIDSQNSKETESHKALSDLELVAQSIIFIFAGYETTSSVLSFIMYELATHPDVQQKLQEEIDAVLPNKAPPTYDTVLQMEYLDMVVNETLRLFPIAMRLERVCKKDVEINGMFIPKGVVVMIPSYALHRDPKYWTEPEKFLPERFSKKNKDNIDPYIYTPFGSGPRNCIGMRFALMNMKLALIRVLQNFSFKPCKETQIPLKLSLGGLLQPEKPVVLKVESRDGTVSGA
The nature of data set [12]: Toxicity in mouse xenografted with human NCI-H460 cells with high-OXPHOS assessed as reduction in body weight at 30 mg/kg, po bid administered for 18 days. In kind it is organism-based. To be noted: in vivo, 432 h, time 18 day.
Data set [13] concerns NCI-H441. As to the kind of experiment: Inhibition of mitochondrial respiration in human NCI-H441 cells with high-OXPHOS assessed as reduction in basal oxygen consumption rate incubated for 12 hrs by seahorse XF96 flux analyzer. In kind it is functional, cell-based. To be noted: dose 50-200 nM.
Data set [14] concerns NCI-H358. As to the kind of experiment: Inhibition of mitochondrial respiration in human NCI-H358 cells with low-OXPHOS assessed as reduction in oxygen consumption rate at 50 to 200 nM incubated for 12 hrs by seahorse XF96 flux analyzer. In kind it is functional, cell-based. To be noted: dose 50-200 nM.
The subject of data set [15] is NCI-H460. As to the kind of experiment: Induction of apoptosis in human NCI-H460 cells with high-OXPHOS harboring KRAS Q61H mutant assessed as late apoptotic cells at 20 nM incubated for 72 hrs by Annexin V-FITC/propidium iodide staining based flow cytometry analysis (reference value: 5.68%). It is filed as functional.

Turning to `Cc1c(C(=O)N2CCN(Cc3ccc(OCC(F)(F)F)cc3)CC2)nnn1Cc1ccc(C(=O)Nc2ccc(C(F)(F)F)cc2)nc1`, the inhibition (usually how much of the control response was suppressed) in [1] is “Dose-Dependent Effect”; in [5], 28.1%; in data set [6] it was “Dose-Dependent Effect”; in data set [8] it was 77.6%; in data set [13], “Dose-Dependent Effect”. The Activity in data set [2] was 2.87%; in data set [3] it was 31%; in data set [10], 7.88%; in data set [12] it was “Non-Toxic”; in [15], 16.2%. Besides, the time of peak concentration (Tmax) – broadly, the time from dosing to the highest level – in data set [4] is 1 h. Besides, in data set [7], the result was Active. Besides, the clearance (in general, a measure of how efficiently the substance is removed, as volume per time) in data set [9] is 2.79 L/h/kg. In data set [11], the IC50 (usually the concentration at which inhibition is half-maximal) was above 50 µM. Besides, in data set [14], the inhibition result is “inactive”.
